Laboratory results as given in ChEMBL document CHEMBL5360618, “PepScaf: Harnessing Machine Learning with In Vitro Selection toward De Novo Macrocyclic Peptides against IL-17C/IL-17RE Interaction” (J Med Chem, 2023).
Positions of bridges follow the written chain, without caps; N, C: chain ends. Residues, ends and D or L forms follow the SMILES beside them.

Target: T1, IL17-RE-IL-17C (Homo sapiens, UniProt Q8NFR9+Q9P0M4)
T1 sequence (Q9P0M4 whole entry): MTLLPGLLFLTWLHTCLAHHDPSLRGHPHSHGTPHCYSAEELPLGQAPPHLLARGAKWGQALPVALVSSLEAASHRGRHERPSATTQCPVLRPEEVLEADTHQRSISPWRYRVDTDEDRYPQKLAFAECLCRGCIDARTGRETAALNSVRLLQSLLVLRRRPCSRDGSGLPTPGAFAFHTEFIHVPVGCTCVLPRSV
T1 sequence (Q8NFR9 whole entry): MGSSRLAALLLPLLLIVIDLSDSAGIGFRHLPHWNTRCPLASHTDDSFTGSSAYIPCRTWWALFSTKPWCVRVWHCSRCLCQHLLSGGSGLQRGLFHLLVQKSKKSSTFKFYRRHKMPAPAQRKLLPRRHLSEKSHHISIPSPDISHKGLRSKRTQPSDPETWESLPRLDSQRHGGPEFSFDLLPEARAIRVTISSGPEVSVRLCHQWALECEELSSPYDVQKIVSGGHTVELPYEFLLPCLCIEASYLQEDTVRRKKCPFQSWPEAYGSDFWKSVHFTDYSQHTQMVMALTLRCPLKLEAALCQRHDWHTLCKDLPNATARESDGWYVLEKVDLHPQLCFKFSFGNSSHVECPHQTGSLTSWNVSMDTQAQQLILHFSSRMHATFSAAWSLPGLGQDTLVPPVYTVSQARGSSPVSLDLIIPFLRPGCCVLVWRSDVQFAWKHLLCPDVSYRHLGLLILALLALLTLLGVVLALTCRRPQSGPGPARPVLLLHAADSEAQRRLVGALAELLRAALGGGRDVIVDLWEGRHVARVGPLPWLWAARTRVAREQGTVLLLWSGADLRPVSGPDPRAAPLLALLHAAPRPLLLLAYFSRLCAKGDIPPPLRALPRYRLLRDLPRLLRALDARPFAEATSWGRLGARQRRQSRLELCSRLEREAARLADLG
Experiment: Inhibition of IL-17C/IL-17RE interaction (unknown origin) incubated for 1.5 hrs by ELISA method
Assay type: protein-complex assay

Row | IC50 | SMILES
1 | 422 nM | CC[C@H](C)[C@@H]1NC(=O)[C@H](CCC(=O)O)NC(=O)CNC(=O)[C@H](Cc2ccc(O)cc2)NC(=O)[C@H](CC(C)C)NC(=O)[C@H]([C@@H](C)CC)NC(=O)[C@H](CCCNC(=N)N)NC(=O)[C@H](Cc2ccc(O)cc2)NC(=O)[C@H](Cc2ccc(O)cc2)NC(=O)[C@H](Cc2c[nH]cn2)NC(=O)[C@H](Cc2c[nH]cn2)NC(=O)[C@H](Cc2ccc(O)cc2)NC(=O)CSC[C@@H](C(=O)NCC(N)=O)NC(=O)CNC1=O ({CH2CO}-YHHYYRILYGEIGCG-NH2; thioether N-14)
2 | 865 nM | CC[C@H](C)[C@@H]1NC(=O)[C@H](CCCNC(=N)N)NC(=O)[C@H](Cc2ccc(O)cc2)NC(=O)[C@H](Cc2ccc(O)cc2)NC(=O)[C@H](Cc2c[nH]cn2)NC(=O)[C@H](Cc2c[nH]cn2)NC(=O)[C@H](Cc2ccc(O)cc2)NC(=O)CSC[C@@H](C(=O)NCC(N)=O)NC(=O)[C@H](C)NC(=O)[C@H](CC(C)C)NC(=O)[C@H](CCC(=O)O)NC(=O)CNC(=O)[C@H](Cc2ccc(O)cc2)NC(=O)[C@H](CC(C)C)NC1=O ({CH2CO}-YHHYYRILYGELACG-NH2; thioether N-14)
3 | 166 nM | CC[C@H](C)[C@@H]1NC(=O)[C@H](CCCNC(=N)N)NC(=O)[C@H](Cc2ccc(O)cc2)NC(=O)[C@H](Cc2ccc(O)cc2)NC(=O)[C@H](Cc2c[nH]cn2)NC(=O)[C@H](Cc2c[nH]cn2)NC(=O)[C@H](Cc2ccc(O)cc2)NC(=O)CSC[C@@H](C(=O)NCC(N)=O)NC(=O)CNC(=O)[C@H](CC(C)C)NC(=O)[C@H](CCC(=O)O)NC(=O)CNC(=O)[C@H](Cc2ccc(O)cc2)NC(=O)[C@H](CC(C)C)NC1=O ({CH2CO}-YHHYYRILYGELGCG-NH2; thioether N-14)
4 | > 30000 nM | CC[C@H](C)[C@@H]1NC(=O)[C@H](CCCNC(=N)N)NC(=O)[C@H](Cc2ccc(O)cc2)NC(=O)[C@H](Cc2ccc(O)cc2)NC(=O)[C@H](Cc2cnc[nH]2)NC(=O)[C@H](Cc2cnc[nH]2)NC(=O)[C@H](Cc2ccc(O)cc2)NC(=O)CSC[C@@H](C(=O)NCC(N)=O)NC(=O)CNC(=O)[C@@H]2CCCN2C(=O)[C@H](CCC(=O)O)NC(=O)CNC(=O)[C@H](Cc2ccc(O)cc2)NC(=O)[C@H](CC(C)C)NC1=O ({CH2CO}-YHHYYRILYGEPGCG-NH2; thioether N-14)
5 | 211 nM | CC[C@H](C)[C@@H]1NC(=O)[C@H](CCCNC(=N)N)NC(=O)[C@H](Cc2ccc(O)cc2)NC(=O)[C@H](Cc2ccc(O)cc2)NC(=O)[C@H](Cc2c[nH]cn2)NC(=O)[C@H](Cc2c[nH]cn2)NC(=O)[C@H](Cc2ccc(O)cc2)NC(=O)CSC[C@@H](C(=O)NCC(N)=O)NC(=O)CNC(=O)[C@H](CC(C)C)NC(=O)CNC(=O)CNC(=O)[C@H](Cc2ccc(O)cc2)NC(=O)[C@H](CC(C)C)NC1=O ({CH2CO}-YHHYYRILYGGLGCG-NH2; thioether N-14)
6 | 442 nM | CC[C@H](C)[C@@H]1NC(=O)[C@H](CCCNC(=N)N)NC(=O)[C@H](Cc2ccc(O)cc2)NC(=O)[C@H](Cc2ccc(O)cc2)NC(=O)[C@H](Cc2c[nH]cn2)NC(=O)[C@H](Cc2c[nH]cn2)NC(=O)[C@H](Cc2ccc(O)cc2)NC(=O)CSC[C@@H](C(=O)NCC(N)=O)NC(=O)CNC(=O)[C@H](CC(C)C)NC(=O)[C@H](C(C)C)NC(=O)CNC(=O)[C@H](Cc2ccc(O)cc2)NC(=O)[C@H](CC(C)C)NC1=O ({CH2CO}-YHHYYRILYGVLGCG-NH2; thioether N-14)
7 | 1340 nM | CC[C@H](C)[C@@H]1NC(=O)[C@H](CCCNC(=N)N)NC(=O)[C@H](Cc2ccc(O)cc2)NC(=O)[C@H](Cc2ccc(O)cc2)NC(=O)[C@H](Cc2c[nH]cn2)NC(=O)[C@H](Cc2c[nH]cn2)NC(=O)[C@H](Cc2ccc(O)cc2)NC(=O)CSC[C@@H](C(=O)NCC(N)=O)NC(=O)CNC(=O)[C@H](CC(C)C)NC(=O)[C@H](CCC(=O)O)NC(=O)[C@H](CO)NC(=O)[C@H](Cc2ccc(O)cc2)NC(=O)[C@H](CC(C)C)NC1=O ({CH2CO}-YHHYYRILYSELGCG-NH2; thioether N-14)
8 | > 30000 nM | CC[C@H](C)[C@@H]1NC(=O)[C@H](CCCNC(=N)N)NC(=O)[C@H](Cc2ccc(O)cc2)NC(=O)[C@H](Cc2ccc(O)cc2)NC(=O)[C@H](Cc2c[nH]cn2)NC(=O)[C@H](Cc2c[nH]cn2)NC(=O)[C@H](Cc2ccc(O)cc2)NC(=O)CSC[C@@H](C(=O)NCC(N)=O)NC(=O)CNC(=O)[C@H](CC(C)C)NC(=O)[C@H](CCC(=O)O)NC(=O)CNC(=O)[C@H](Cc2ccc(O)cc2)NC(=O)[C@@H]2CCCN2C1=O ({CH2CO}-YHHYYRIPYGELGCG-NH2; thioether N-14)
9 | 288 nM | CC(C)C[C@@H]1NC(=O)[C@H](CCC(=O)O)NC(=O)CNC(=O)[C@H](Cc2ccc(O)cc2)NC(=O)[C@H](CC(C)C)NC(=O)[C@H]([C@@H](C)O)NC(=O)[C@H](CCCNC(=N)N)NC(=O)[C@H](Cc2ccc(O)cc2)NC(=O)[C@H](Cc2ccc(O)cc2)NC(=O)[C@H](Cc2c[nH]cn2)NC(=O)[C@H](Cc2c[nH]cn2)NC(=O)[C@H](Cc2ccc(O)cc2)NC(=O)CSC[C@@H](C(=O)NCC(N)=O)NC(=O)CNC1=O ({CH2CO}-YHHYYRTLYGELGCG-NH2; thioether N-14)
10 | 414 nM | CC(C)C[C@@H]1NC(=O)[C@H](CCC(=O)O)NC(=O)CNC(=O)[C@H](Cc2ccc(O)cc2)NC(=O)[C@H](CC(C)C)NC(=O)[C@H](C(C)C)NC(=O)[C@H](CCCNC(=N)N)NC(=O)[C@H](Cc2ccc(O)cc2)NC(=O)[C@H](Cc2ccc(O)cc2)NC(=O)[C@H](Cc2c[nH]cn2)NC(=O)[C@H](Cc2cnc[nH]2)NC(=O)[C@H](Cc2ccc(O)cc2)NC(=O)CSC[C@@H](C(=O)NCC(N)=O)NC(=O)CNC1=O ({CH2CO}-YHHYYRVLYGELGCG-NH2; thioether N-14)
11 | 2520 nM | CC[C@H](C)[C@@H]1NC(=O)[C@H](CO)NC(=O)[C@H](Cc2ccc(O)cc2)NC(=O)[C@H](Cc2ccc(O)cc2)NC(=O)[C@H](Cc2c[nH]cn2)NC(=O)[C@H](Cc2c[nH]cn2)NC(=O)[C@H](Cc2ccc(O)cc2)NC(=O)CSC[C@@H](C(=O)NCC(N)=O)NC(=O)CNC(=O)[C@H](CC(C)C)NC(=O)[C@H](CCC(=O)O)NC(=O)CNC(=O)[C@H](Cc2ccc(O)cc2)NC(=O)[C@H](CC(C)C)NC1=O ({CH2CO}-YHHYYSILYGELGCG-NH2; thioether N-14)
12 | 9.2 nM | CC[C@H](C)[C@@H]1NC(=O)[C@H](Cc2c[nH]cn2)NC(=O)[C@H](Cc2ccc(O)cc2)NC(=O)CSC[C@@H](C(=O)NCC(N)=O)NC(=O)CNC(=O)[C@H](CC(C)C)NC(=O)[C@H](C)NC(=O)CNC(=O)[C@H](Cc2ccc(O)cc2)NC(=O)[C@H](CC(C)C)NC(=O)[C@H](CO)NC(=O)[C@H](C)NC(=O)[C@H](Cc2ccc(O)cc2)NC(=O)[C@H](Cc2ccc(O)cc2)NC1=O ({CH2CO}-YHIYYASLYGALGCG-NH2; thioether N-14)
13 | 1.4 nM | CC[C@H](C)[C@@H]1NC(=O)[C@H](Cc2c[nH]cn2)NC(=O)[C@H](Cc2ccc(O)cc2)NC(=O)CSC[C@@H](C(=O)NCC(N)=O)NC(=O)CNC(=O)[C@H](CC(C)C)NC(=O)[C@H](CC(=O)O)NC(=O)CNC(=O)[C@H](Cc2ccc(O)cc2)NC(=O)[C@H](CC(C)C)NC(=O)[C@H](CO)NC(=O)[C@H](C)NC(=O)[C@H](Cc2ccc(O)cc2)NC(=O)[C@H](Cc2ccc(O)cc2)NC1=O ({CH2CO}-YHIYYASLYGDLGCG-NH2; thioether N-14)
14 | 4.2 nM | CC[C@H](C)[C@@H]1NC(=O)[C@H](Cc2c[nH]cn2)NC(=O)[C@H](Cc2ccc(O)cc2)NC(=O)CSC[C@@H](C(=O)NCC(N)=O)NC(=O)CNC(=O)[C@H](CC(C)C)NC(=O)[C@H](CCCCN)NC(=O)CNC(=O)[C@H](Cc2ccc(O)cc2)NC(=O)[C@H](CC(C)C)NC(=O)[C@H](CO)NC(=O)[C@H](C)NC(=O)[C@H](Cc2ccc(O)cc2)NC(=O)[C@H](Cc2ccc(O)cc2)NC1=O ({CH2CO}-YHIYYASLYGKLGCG-NH2; thioether N-14)
15 | 12 nM | CC[C@H](C)[C@@H]1NC(=O)[C@H](Cc2c[nH]cn2)NC(=O)[C@H](Cc2ccc(O)cc2)NC(=O)CSC[C@@H](C(=O)NCC(N)=O)NC(=O)CNC(=O)[C@H](CC(C)C)NC(=O)[C@H](CC(C)C)NC(=O)CNC(=O)[C@H](Cc2ccc(O)cc2)NC(=O)[C@H](CC(C)C)NC(=O)[C@H](CO)NC(=O)[C@H](C)NC(=O)[C@H](Cc2ccc(O)cc2)NC(=O)[C@H](Cc2ccc(O)cc2)NC1=O ({CH2CO}-YHIYYASLYGLLGCG-NH2; thioether N-14)
16 | 4.4 nM | CC[C@H](C)[C@@H]1NC(=O)[C@H](Cc2c[nH]cn2)NC(=O)[C@H](Cc2ccc(O)cc2)NC(=O)CSC[C@@H](C(=O)NCC(N)=O)NC(=O)CNC(=O)[C@H](CC(C)C)NC(=O)[C@H](CC(N)=O)NC(=O)CNC(=O)[C@H](Cc2ccc(O)cc2)NC(=O)[C@H](CC(C)C)NC(=O)[C@H](CO)NC(=O)[C@H](C)NC(=O)[C@H](Cc2ccc(O)cc2)NC(=O)[C@H](Cc2ccc(O)cc2)NC1=O ({CH2CO}-YHIYYASLYGNLGCG-NH2; thioether N-14)
17 | 6.2 nM | CC[C@H](C)[C@@H]1NC(=O)[C@H](Cc2c[nH]cn2)NC(=O)[C@H](Cc2ccc(O)cc2)NC(=O)CSC[C@@H](C(=O)NCC(N)=O)NC(=O)CNC(=O)[C@H](CC(C)C)NC(=O)[C@H](Cc2c[nH]cn2)NC(=O)CNC(=O)[C@H](Cc2ccc(O)cc2)NC(=O)[C@H](CC(C)C)NC(=O)[C@H](CO)NC(=O)[C@H](Cc2ccccc2)NC(=O)[C@H](Cc2ccc(O)cc2)NC(=O)[C@H](Cc2ccc(O)cc2)NC1=O ({CH2CO}-YHIYYFSLYGHLGCG-NH2; thioether N-14)
